Source: US20240294488A1, “ISOTOPOLOGES, SALTS, CRYSTALLINE FORMS, STEREOISOMERS, OF METHYLONE AND ETHYLONE AND METHODS OF USE THEREOF” (Terran Biosciences Inc., priority 2021, published 2024)

Assays:
[1] = Metabolic stability in human liver microsomes; assay type: in vitro ADME; conditions: for difference in half-life and intrinsic clearance compared with the non-deuterated methylone hydrochloride: human liver microsomes; for half-life at 1 μM / microsomal CLint at 1 μM: pooled liver microsomes, pH 7.4, human liver microsomes 0.5 mg/mL, 1 μM compound, NADPH, 0-45 min
Description: Pooled liver microsomes are purchased from a reputable commercial supplier. Microsomes are stored at […] prior to use. Microsomes (final protein concentration 0.5 mg/mL), 0.1 M phosphate buffer pH 7.4 and test compound (final substrate concentration 1 μM; final DMSO concentration 0.25%) are preincubated at 37° C. prior to the addition of NADPH (final concentration 1 mM) to initiate the reaction. A minus cofactor control incubation is included for each compound tested where 0.1 M phosphate buffer pH 7.4 is added instead of NADPH (minus NADPH). Two control compounds are included with each species. All incubations are performed singularly for each test compound. Each compound is incubated for 0, 5, 15, 30 and 45 min. The control (minus NADPH) is incubated for 45 min only. The reactions are stopped by transferring incubate into acetonitrile at the appropriate time points, in a 1:3 ratio. The termination plates are centrifuged at 3,000 rpm for 20 min at 4° C. to precipitate the protein.
From a plot of ln peak area ratio (compound peak area/internal standard peak area) against time, the gradient of the line is determined. Subsequently, half-life and intrinsic clearance are calculated using the equations below:
where V=Incubation volume (μL)/Microsomal protein (mg)
Relevant control compounds were assessed, ensuring intrinsic clearance values fall within the specified limits (if available).

C57/BL6J mice = experiment: Forced swim test (FST); assay type: in vivo, mouse; conditions: 24 h after administration
Description: As increased cortical structural plasticity in the anterior parts of the brain mediates the sustained (>24 h) antidepressant-like effects of ketamine and play a role in the therapeutic effects of 5-HT2A agonists, the impact of the present compounds on forced swim test (FST) behavior is evaluated. First, a pretest is used to induce a depressive phenotype. Compounds are administered 24 h after the pre-test, and the FST is performed 24 h and 7 d post compound administration.
Male C57/BL6J mice (9-10 weeks old at time of experiment) are obtained. After 1 week in the vivarium each mouse is handled for approximately 1 minute by the experimenter for 3 consecutive days leading up to the first FST. All experiments are carried out by the same experimenter who performs handling. During the FST, mice undergo a 6 min swim session in a clear Plexiglas cylinder 40 cm tall, 20 cm in diameter, and filled with 30 cm of 24±1° C. water. […] Immobility scores for all mice are determined after the pre-test and mice are randomly assigned to treatment groups to generate groups with similar average immobility scores to be used for the following two FST sessions. […] Experiments are video-recorded and manually scored offline. Immobility time—defined as passive floating or remaining motionless with no activity other than that needed to keep the mouse's head above water—is scored for the last 4 min of the 6 min trial.

[2] = cited from earlier work

Row | Compound | difference in half-life and intrinsic clearance compared with the non-deuterated methylone hydrochloride [1] | half-life at 1 μM [1] [h] | microsomal CLint at 1 μM [1] [µL/min/mg] | immobility in forced swim test (C57/BL6J mice) | Oral Methylone Dose, Drug Activity Level Very Strong ([2]; oral, modified from WHO 2014) [mg] | effect of re-dose on duration of effects ([2]; re-dose of one-third to one-half the initial dose, WHO 2014)
1 | Cl.[2H]C1([2H])Oc2ccc(C(=O)C(C)NC)cc2O1 (racemic) [(rac)-Methylone-d2 hydrochloride, 1-(benzo[d][1,3]dioxol-5-yl-2,2-d2)-2-((methyl)amino)propan-1-one HCl] | demonstrated differences in half-life and intrinsic clearance | 2.45 | 9.46 | – | – | –
2 | CNC1(c2ccccc2Cl)CCCCC1=O (stereo not drawn) [ketamine] | – | – | – | significantly reduced immobility | – | –
3 | CNC(C)C(=O)c1ccc2c(c1)OCO2 (stereo not drawn) [Methylone, 3,4-methylenedioxy-N-methylcathinone] | – | – | – | – | ≥270 | prolongs duration for approximately one hour
4 | Cl.[2H]C([2H])([2H])NC(C)C(=O)c1ccc2c(c1)OC([2H])([2H])O2 (racemic) [(rac)-Methylone-d5 hydrochloride, 1-(benzo[d][1,3]dioxol-5-yl-2,2-d2)-2-((methyl-d3)amino)propan-1-one HCl] | the most significant difference in half-life and intrinsic clearance | 3.05 | 7.59 | – | – | –
5 | Cl.[2H]C([2H])([2H])N[C@H](C)C(=O)c1ccc2c(c1)OCO2 [(R)-Methylone-d3 hydrochloride, (R)-1-(benzo[d][1,3]dioxol-5-yl)-2-((methyl-d3)amino)propan-1-one HCl] | demonstrated differences in half-life and intrinsic clearance | 3.57 | 6.49 | – | – | –
6 | Cl.[2H]C([2H])([2H])N[C@H](C)C(=O)c1ccc2c(c1)OC([2H])([2H])O2 [(R)-Methylone-d5 hydrochloride, (R)-1-(benzo[d][1,3]dioxol-5-yl-2,2-d2)-2-((methyl-d3)amino)propan-1-one hydrochloride] | the most significant difference in half-life and intrinsic clearance | 3.68 | 6.27 | – | – | –
7 | Cl.[2H]C1([2H])Oc2ccc(C(=O)[C@H](C)NC)cc2O1 [(S)-Methylone-d2 hydrochloride, (S)-1-(benzo[d][1,3]dioxol-5-yl-2,2-d2)-2-(methylamino)propan-1-one hydrochloride] | demonstrated differences in half-life and intrinsic clearance | 2.45 | 9.41 | – | – | –
8 | Cl.[2H]C1([2H])Oc2ccc(C(=O)[C@@H](C)NC)cc2O1 [(R)-Methylone-d2 hydrochloride, (R)-1-(benzo[d][1,3]dioxol-5-yl-2,2-d2)-2-((methyl)amino)propan-1-one HCl] | demonstrated differences in half-life and intrinsic clearance | 3.3 | 7 | – | – | –
9 | Cl.[2H]C([2H])([2H])N[C@@H](C)C(=O)c1ccc2c(c1)OC([2H])([2H])O2 [(S)-Methylone-d5 hydrochloride, (S)-1-(benzo[d][1,3]dioxol-5-yl-2,2-d2)-2-((methyl-d3)amino)propan-1-one hydrochloride] | the most significant difference in half-life and intrinsic clearance | 2.55 | 9.07 | – | – | –
10 | Cl.[2H]C([2H])([2H])NC(C)C(=O)c1ccc2c(c1)OCO2 (racemic) [(rac)-Methylone-d3 hydrochloride, 1-(benzo[d][1,3]dioxol-5-yl)-2-((methyl-d3)amino)propan-1-one HCl] | demonstrated differences in half-life and intrinsic clearance | 2.88 | 8.02 | – | – | –
11 | Cl.[2H]C([2H])([2H])N[C@@H](C)C(=O)c1ccc2c(c1)OCO2 [(S)-Methylone-d3 hydrochloride, (S)-1-(benzo[d][1,3]dioxol-5-yl)-2-((methyl-d3)amino)propan-1-one HCl] | demonstrated differences in half-life and intrinsic clearance | 2.4 | 9.6 | – | – | –
